In paper PMC5102573 (Clinical Pharmacology and Therapeutics, 2016):
Several values for one entry are separate records, joined by “and”; a condition that tells them apart may be missing. Equal entries are not always repeated. Structures can show the parent of a compound that is named as a salt. Where two headings read alike, the source gives them in different places. Each block holds one compound with its values, some of them ahead of it.

What was measured:
[1] = rosuvastatin 10 mg q.d. with metformin 750 mg q.d.; cited from earlier work
[2] = 5 mg rosuvastatin and 600 mg rifampin; cited from earlier work
[3] = cocktail T1 vs alone, geometric mean ratio
[4] = cocktail T2 vs alone, geometric mean ratio
[5] = cocktail T3 vs alone, geometric mean ratio

urinary excretion parameters fe0-36 and CLR,0-36 between the treatments (Urinary excretion; alone vs cocktails): comparable | AUC0-tz decrease, cocktail T3 vs cocktail T1 (T3 vs T1): 22.6% | Cmax decrease, cocktail T3 vs cocktail T1 (T3 vs T1): 12.2% | median tmax (after all treatments (alone and cocktails)): 1.0 h | AUC0-tz decrease in cocktail vs drug alone (cocktail T3 vs alone (R)): 17% | Cmax decrease in cocktail vs drug alone (cocktail T3 vs alone (R)): 11.4% and 11%
SMILES: C[C@H]1O[C@@H](O[C@H]2[C@@H](O)C[C@H](O[C@H]3[C@@H](O)C[C@H](O[C@H]4CC[C@@]5(C)[C@H](CC[C@@H]6[C@@H]5C[C@@H](O)[C@]5(C)[C@@H](C7=CC(=O)OC7)CC[C@]65O)C4)O[C@@H]3C)O[C@@H]2C)C[C@H](O)[C@@H]1O [Digoxin, digoxin]

CLR,0-36 in the different treatment periods (Urinary excretion; alone vs cocktails): comparable | fe0-36, gMean (Urinary excretion; analyte given in Test Cocktail 1): 7.93% | fe0-36, gMean (Urinary excretion; drug given alone, fraction excreted in urine 0-36 h): 5.45% | fe0-36 in cocktails T1, T2, and T3 compared to drug alone (Urinary excretion; in vivo): higher | AUC0-tz increase (higher) in cocktail vs drug alone [3]: 43.4% and 43% | AUC0-∞ increase in cocktail vs drug alone [3]: 27.8% | Cmax increase (higher) in cocktail vs drug alone [3]: 38.6% and 39% | AUC0-tz increase in cocktail vs drug alone [4]: 50.9% | AUC0-∞ increase in cocktail vs drug alone [4]: 37.4% | Cmax increase in cocktail vs drug alone [4]: 37.9% | AUC0-tz increase in cocktail vs drug alone [5]: 45.6% | AUC0-∞ increase in cocktail vs drug alone [5]: 23.3% | Cmax increase in cocktail vs drug alone [5]: 40.1% | AUC0-tz, Ratio T/R (relative bioavailability) (test cocktail T1 vs drug alone): 143.39% | AUC0-∞, Ratio T/R (relative bioavailability) (test cocktail T1 vs drug alone): 127.83% | Cmax, Ratio T/R (relative bioavailability) (test cocktail T1 vs drug alone): 138.57% | AUC0-tz, Ratio T/R (relative bioavailability) (test cocktail T2 vs drug alone): 150.87% | AUC0-∞, Ratio T/R (relative bioavailability) (test cocktail T2 vs drug alone): 137.43% | Cmax, Ratio T/R (relative bioavailability) (test cocktail T2 vs drug alone): 137.93% | AUC0-tz, Ratio T/R (relative bioavailability) (test cocktail T3 vs drug alone): 145.61% | AUC0-∞, Ratio T/R (relative bioavailability) (test cocktail T3 vs drug alone): 123.25% | Cmax, Ratio T/R (relative bioavailability) (test cocktail T3 vs drug alone): 140.05%
SMILES: CC(C)c1nc(N(C)S(C)(=O)=O)nc(-c2ccc(F)cc2)c1/C=C/[C@@H](O)C[C@@H](O)CC(=O)O [Rosuvastatin, rosuvastatin]
effect of metformin on AUCτ [1]: did not alter | increase of geometric mean Cmax,ss caused by metformin [1]: 23% | increase of plasma AUC0-24 with rifampin [2]: 5.2 fold | increase of plasma Cmax with rifampin [2]: 9.9 fold

CLR,0-24 decrease in cocktails vs drug alone (Urinary excretion; cocktails T1 and T3 vs alone): 10–18% | fe0-36 decrease in cocktails vs drug alone (Urinary excretion; cocktails T1 and T3 vs alone): 10–18%
SMILES: CN(C)C(=N)N=C(N)N [Metformin, metformin hydrochloride]
